Reference: the NIST ThermoML archive (doi:10.1016/j.jct.2007.11.002)
± gives the expanded uncertainty stated by the source.

Assay: xn = mol fraction of the nth substance listed
Details: 101 kPa, Liquid; for viscosity: Capillary tube (Ostwald / Ubbelohde) method

CN1CCOCC1 [N-methylmorpholine] + c1ccccc1
Details	mass density, 298.15 K [kg/m3]	mass density, 303.15 K [kg/m3]	mass density, 313.15 K [kg/m3]	mass density, 323.15 K [kg/m3]	viscosity, 298.15 K [mPa·s]	viscosity, 303.15 K [mPa·s]	viscosity, 313.15 K [mPa·s]	viscosity, 323.15 K [mPa·s]
x2 = 0.0554	912.69 ± 1	907.91 ± 1	898.27 ± 1	879.87 ± 1	0.847 ± 0.011	0.836 ± 0.011	0.811 ± 0.011	0.789 ± 0.011
x2 = 0.1167	911.11 ± 0.93	906.07 ± 0.93	896.38 ± 0.95	878.41 ± 0.97	0.814 ± 0.011	0.805 ± 0.01	0.781 ± 0.01	0.761 ± 0.01
x2 = 0.1798	909.39 ± 0.86	904.33 ± 0.87	894.47 ± 0.88	876.92 ± 0.91	0.783 ± 0.01	0.772 ± 0.01	0.746 ± 0.01	0.731 ± 0.01
x2 = 0.2477	907.18 ± 0.8	902.35 ± 0.81	892.51 ± 0.82	875.44 ± 0.85	0.753 ± 0.009	0.741 ± 0.009	0.713 ± 0.009	0.695 ± 0.009
x2 = 0.2855	906.2 ± 0.77	901.15 ± 0.78	891.26 ± 0.79	874.46 ± 0.82	0.737 ± 0.009	0.725 ± 0.009	0.695 ± 0.009	0.676 ± 0.009
x2 = 0.3422	904.33 ± 0.72	899.41 ± 0.73	889.48 ± 0.75	873.1 ± 0.78	0.715 ± 0.009	0.7 ± 0.009	0.668 ± 0.009	0.647 ± 0.008
x2 = 0.3762	903.31 ± 0.7	898.32 ± 0.71	888.33 ± 0.72	872.2 ± 0.75	0.704 ± 0.009	0.688 ± 0.009	0.654 ± 0.008	0.632 ± 0.008
x2 = 0.4244	901.72 ± 0.66	896.71 ± 0.67	886.67 ± 0.69	870.91 ± 0.72	0.687 ± 0.008	0.671 ± 0.008	0.636 ± 0.008	0.613 ± 0.008
x2 = 0.479	899.69 ± 0.63	894.8 ± 0.64	884.72 ± 0.66	869.39 ± 0.69	0.672 ± 0.008	0.656 ± 0.008	0.617 ± 0.008	0.592 ± 0.008
x2 = 0.5466	897 ± 0.59	892.15 ± 0.6	881.97 ± 0.62	867.18 ± 0.65	0.655 ± 0.008	0.637 ± 0.008	0.598 ± 0.008	0.568 ± 0.008
x2 = 0.5911	895.2 ± 0.57	890.3 ± 0.58	880.1 ± 0.6	865.69 ± 0.63	0.646 ± 0.008	0.628 ± 0.008	0.587 ± 0.008	0.556 ± 0.007
x2 = 0.6201	893.8 ± 0.56	889.05 ± 0.57	878.76 ± 0.59	864.58 ± 0.62	0.641 ± 0.008	0.622 ± 0.008	0.579 ± 0.007	0.548 ± 0.007
x2 = 0.6822	891 ± 0.54	886.21 ± 0.55	875.84 ± 0.57	862.22 ± 0.6	0.631 ± 0.008	0.61 ± 0.007	0.565 ± 0.007	0.531 ± 0.007
x2 = 0.7094	889.5 ± 0.53	884.9 ± 0.54	874.61 ± 0.56	861.22 ± 0.59	0.628 ± 0.007	0.606 ± 0.007	0.561 ± 0.007	0.525 ± 0.007
x2 = 0.7655	886.8 ± 0.51	882.04 ± 0.52	871.56 ± 0.55	858.69 ± 0.57	0.625 ± 0.007	0.6 ± 0.007	0.551 ± 0.007	0.509 ± 0.007
x2 = 0.7901	885.2 ± 0.51	880.63 ± 0.52	870.14 ± 0.54	857.49 ± 0.57	0.621 ± 0.007	0.597 ± 0.007	0.548 ± 0.007	0.503 ± 0.007
x2 = 0.8439	882.2 ± 0.5	877.64 ± 0.51	867.09 ± 0.53	854.96 ± 0.56	0.618 ± 0.007	0.589 ± 0.007	0.535 ± 0.007	0.486 ± 0.007
x2 = 0.8933	879.6 ± 0.49	874.81 ± 0.5	864.21 ± 0.53	852.55 ± 0.55	0.613 ± 0.007	0.583 ± 0.007	0.521 ± 0.007	0.468 ± 0.007
x2 = 0.9278	877.5 ± 0.49	872.82 ± 0.5	862.18 ± 0.53	850.86 ± 0.55	0.61 ± 0.007	0.578 ± 0.007	0.512 ± 0.007	0.458 ± 0.007
x2 = 0.9641	875.4 ± 0.49	870.63 ± 0.5	859.95 ± 0.53	848.96 ± 0.55	0.606 ± 0.007	0.571 ± 0.007	0.503 ± 0.007	0.448 ± 0.007
